The target in one experiment is calmodulin (Homo sapiens, UniProt P0DP23). The experiment is described as follows: Inhibition of calmodulin activity (method of Leung et al. 1984). The class given is biochemical. As to the method:
The inhibition of calmodulin activity by A and B were measured using the method described by Leung et al. (1984) and the results are shown in Table 1.
In still another experiment, inhibition of calmodulin by the same cholesterol hydroperoxides was tested. The calmodulin inhibition was assayed as described by Leung et al. (J. Biol. Chem., 259:2742-2747, 1984).

In experiment [1] the test system is mouse peritoneal macrophages. The experiment is described as follows: Esterification of cholesterol in mouse peritoneal macrophages (3H-oleate incorporation into cholesteryl ester). The format is cell-based. The note with it: 15 min preincubation. As to the method:
The effects of cholesterol hydroperoxides on the esterification of cholesterol in mouse peritoneal macrophages was tested as follows:
Monolayers of mouse peritoneal macrophages were pretreated with various concentration of ⟦deleted by reissue: 20-(S)-hydroperoxy-cholest-5-ene-3β,25-diol hydroxycholesterol (A) or 20-(R)-hydroperoxycholest-5-ene-3β,25 diol (B) ⟧ 20-(S)-20,25-dihydroperoxy-3β-hydroxycholest-5-ene-(A) or 20-(R)-20,25-dihydroperoxy-3β-hydroxycholest-5-ene (B) at 37° C. After 15 min preincubation, medium M199 providing 2.5% fetal calf serum, acetyl-LDL (25 μg protein/ml) and ^3H-oleate (0.25 μCi/ml) was added to the culture dishes. After 6 hr of incubation with 5% CO2 at 37° C. the cellular lipids were extracted. This layer chromatography was used to separate cholesteryl ester from other lipid classes before the radioactivity was determined. The activities reported have been corrected for losses during chromatography and elution of the thin-layer plates.

Experiment [2] has as its system mouse peritoneal macrophages. Nature of the experiment: Time course of incorporation of 3H-oleate into cholesterol esters by mouse peritoneal macrophages. The class given is cell-based. Conditions: for inhibition of 3H-oleate incorporation into cholesterol esters (in words): 50 μM compound A or 25 μM compound B. The protocol:
In a further experiment, the time course of incorporation of ^3H-oleate into the same cholesterol esters by mouse peritoneal macrophages was studied. Mouse peritoneal macrophages were gorwn in M199 medium containing 2.5% fetal calf serum and acetyl-LDL (25 μg protein/ml) for 18 hr at 37° C. The medium was then replaced by M199 containing 2.5% fetal calf serum; ^3H-oleate with 50 μM compound A or 25 μM compound B or no hydroperoxide. At the time intervals indicated, the medium was aspirated and the cellular lipid was extracted and analyzed by thin-layer chromatography.

Experiment [3] has as its system acyl-Coenzyme-A:cholesterol acyltransferase (ACAT). The experiment is described as follows: Inhibition of ACAT in mouse liver microsomes (14C-oleoyl-Coenzyme A). The format is biochemical. The note with it: 15 min pretreatment. The protocol: In another experiment, the inhibition of ⟦deleted by reissue: acrylCoenzyme-A:cholesterol ⟧ acyl-Coenzyme-A:cholesterol acyltransferase (ACAT) by cholesterol hydroperoxides, compounds A and B was used. Mouse liver microsomes (140 μg protein/assay) were treated with various concentrations of compounds A and B for 15 min prior to starting the assay by the addition of ^14C-oleoyl-Coenzyme A (41 μM, 0.068 μCi/assay). The reaction was carried on at 37° C. for exactly 5 min. then terminated by the addition of chloroform and methanol. The cellular lipids were extracted and separated by thin-layer chromatography.

Experiment [4] concerns rabbits fed an atherogenic diet. The note with it: cited from earlier work.
Where [5] appears, read: 0.01 μg compound preincubated with 0.3 units calmodulin, assay 30 C, 30 min.
[6] abbreviates: 0.1 μg compound preincubated with 0.3 units calmodulin, assay 30 C, 30 min.
Where [7] appears, read: 1 μg compound preincubated with 0.3 units calmodulin, assay 30 C, 30 min.
Where [8] appears, read: 2.5 μM hydroperoxide, 6 hr incubation with acetyl-LDL and 3H-oleate.
[9] abbreviates: 5 μM hydroperoxide, 6 hr incubation.
[10] abbreviates: 10 μM hydroperoxide, 6 hr incubation.
Setting [11] is: 25 μM hydroperoxide, 6 hr incubation.
Where [12] appears, read: 50 μM hydroperoxide, 6 hr incubation.
Setting [13] is: 75 μM hydroperoxide, 6 hr incubation.
Where [14] appears, read: 100 μM hydroperoxide, 6 hr incubation.
[15] abbreviates: 2.5 μM, 5 min reaction at 37° C.
[16] abbreviates: Table 1, Control + EDTA, amount not given.
The mark [17] stands for this setting: Table 9, EGTA, amount not given.

Results on five compounds are retold here after patent publication USRE37999E1, “20-(B)-20,25-dihydroperoxy-3β-hydroxycholest-5-ene and 20-(S)-20,25-dihydroperoxy-3β-hydroxycholest-5-ene” (Iowa State University Research Foundation, Inc., priority 1988, dated 2003).

Molecules are shown by their SMILES. “And” between values parts separate entries of the source, which are not always exact repeats. Equal values may be shown once.

For orientation: % inhibition means the percentage by which the read-out fell short of the control.

On to `CC(C)(CCC[C@@](C)(OO)[C@H]1CC[C@H]2[C@@H]3CC=C4C[C@@H](O)CC[C@]4(C)[C@H]3CC[C@@]21C)OO` [Compound B, 20-(R)-20,25-dihydroperoxy-3β-hydroxycholest-5-ene], for which the “% inhibition” value was found to be 4% on calmodulin (setting [5]); 61% on calmodulin (setting [6]); 81% on calmodulin (setting [7]); 4% on calmodulin (Table 9, 0.001 μg); 61% on calmodulin (Table 9, 0.1 μg); 81% at calmodulin (Table 9, 1 μg). Also, the “nmole P produced^i” value on calmodulin (setting [5]) was 26.9 nmol; at calmodulin (setting [6]), 17.3 nmol; at calmodulin (setting [7]), 13.8 nmol. Besides, the nmoles phosphate produced at calmodulin (Table 9, 0.001 μg) was determined as 26.9 nmol; at calmodulin (Table 9, 0.1 μg), 17.3 nmol; on calmodulin (Table 9, 1 μg) it was 13.8 nmol. For the same compound, the “Counts per min 3H incorporated into cholesteryl ester” value was 41574 Counts per min and 34918 Counts per min in experiment [1] (setting [8]); 32751 Counts per min in experiment [1] (setting [9]); 25140 Counts per min and 16252 Counts per min in experiment [1] (setting [10]); 7752 Counts per min and 6232 Counts per min in experiment [1] (setting [11]); 4073 Counts per min in experiment [1] (setting [12]); 3177 Counts per min and 3385 Counts per min in experiment [1] (setting [13]). Further, the “Counts per min 3H incorporated into cholesteryl ester” value in experiment [1] (setting [14]) is 4427 Counts per min and 2401 Counts per min. The “Counts per minute in cholesterol ester” value in experiment [2] (25 μM compound B, 5 min) is 2218 Counts per minute and 1256 Counts per minute; in experiment [2] (25 μM compound B, 10 min), 2560 Counts per minute and 2019 Counts per minute; in experiment [2] (25 μM compound B, 20 min), 3245 Counts per minute and 4788 Counts per minute; in experiment [2] (25 μM compound B, 30 min) it was 3202 Counts per minute and 2943 Counts per minute; in experiment [2] (25 μM compound B, 60 min), 5054 Counts per minute and 7341 Counts per minute; in experiment [2] (25 μM compound B, 120 min), 7534 Counts per minute and 9160 Counts per minute. Besides, the “Counts per minute in cholesterol ester” value in experiment [2] (25 μM compound B, 240 min) is 18532 Counts per minute and 15819 Counts per minute. For the same compound, the “inhibition of 3H-oleate incorporation into cholesterol esters (in words)” value in experiment [2] (5 min) is “apparent at the shortest time samples”. The “Counts per minute in cholesterol esters” value in experiment [3] (setting [15]) was 4557 Counts per minute and 3518 Counts per minute; in experiment [3] (5 μM, 5 min reaction), 1786 Counts per minute and 2336 Counts per minute; in experiment [3] (10 μM, 5 min reaction), 2499 Counts per minute and 1896 Counts per minute; in experiment [3] (16.7 μM, 5 min reaction) it was 920 Counts per minute and 964 Counts per minute; in experiment [3] (25 μM, 5 min reaction) it was 500 Counts per minute and 720 Counts per minute; in experiment [3] (33.3 μM, 5 min reaction), 429 Counts per minute and 563 Counts per minute. The “Counts per minute in cholesterol esters” value in experiment [3] (50 μM, 5 min reaction) was 315 Counts per minute and 294 Counts per minute; in experiment [3] (100 μM, 5 min reaction), 131 Counts per minute and 244 Counts per minute.
As for `O=C(O)CN(CCN(CC(=O)O)CC(=O)O)CC(=O)O` [EDTA, reference compound], on calmodulin (setting [16]), the “% inhibition” value stood at 100% and the “nmole P produced^i” value came to 10.7 nmol.
For `O=C(O)CN(CCOCCOCCN(CC(=O)O)CC(=O)O)CC(=O)O` [EGTA, reference compound], at calmodulin (setting [17]), the “% inhibition” value was found to be 100% and the nmoles phosphate produced was found to be 10.7 nmol.
Take `CC(C)(CCC[C@](C)(OO)[C@H]1CC[C@H]2[C@@H]3CC=C4C[C@@H](O)CC[C@]4(C)[C@H]3CC[C@@]21C)OO` [Compound A, 20-(S)-20,25-dihydroperoxy-3β-hydroxycholest-5-ene]: the “% inhibition” value on calmodulin (setting [5]) was found to be 28%; at calmodulin (setting [6]), 68%; at calmodulin (setting [7]) it was 92%; on calmodulin (Table 9, 0.01 μg) it was 28%; on calmodulin (Table 9, 0.1 μg) it was 68%; on calmodulin (Table 9, 1 μg), 92%. Further, the “nmole P produced^i” value came to 22.9 nmol on calmodulin (setting [5]), 16.1 nmol at calmodulin (setting [6]) and 12.1 nmol on calmodulin (setting [7]). The nmoles phosphate produced was determined as 22.9 nmol at calmodulin (Table 9, 0.01 μg); 16.1 nmol at calmodulin (Table 9, 0.1 μg); 12.1 nmol on calmodulin (Table 9, 1 μg). Moreover, the “Counts per min 3H incorporated into cholesteryl ester” value in experiment [1] (setting [8]) is 55816 Counts per min and 47673 Counts per min; in experiment [1] (setting [9]) it was 59136 Counts per min; in experiment [1] (setting [10]), 33700 Counts per min and 29618 Counts per min; in experiment [1] (setting [11]), 14510 Counts per min and 17621 Counts per min; in experiment [1] (setting [12]) it was 6059 Counts per min; in experiment [1] (setting [13]) it was 5074 Counts per min and 5047 Counts per min. For the same compound, in experiment [1] (setting [14]), the “Counts per min 3H incorporated into cholesteryl ester” value was 2830 Counts per min and 3970 Counts per min. Also, the “inhibition of 3H-oleate incorporation into cholesterol esters (in words)” value in experiment [2] (5 min) is listed as “apparent at the shortest time samples”. The “Counts per minute in cholesterol ester” value was 2627 Counts per minute and 1994 Counts per minute in experiment [2] (50 μM compound A, 5 min); 2462 Counts per minute and 3092 Counts per minute in experiment [2] (50 μM compound A, 10 min); 5223 Counts per minute and 6049 Counts per minute in experiment [2] (50 μM compound A, 20 min); 4007 Counts per minute and 2937 Counts per minute in experiment [2] (50 μM compound A, 30 min); 4088 Counts per minute and 5295 Counts per minute in experiment [2] (50 μM compound A, 60 min); 7269 Counts per minute and 10036 Counts per minute in experiment [2] (50 μM compound A, 120 min). The “Counts per minute in cholesterol ester” value in experiment [2] (50 μM compound A, 240 min) was 19627 Counts per minute and 17564 Counts per minute. The “Counts per minute in cholesterol esters” value in experiment [3] (setting [15]) was 4702 Counts per minute and 4651 Counts per minute; in experiment [3] (5 μM, 5 min reaction), 4109 Counts per minute and 3420 Counts per minute; in experiment [3] (10 μM, 5 min reaction) it was 3033 Counts per minute and 5422 Counts per minute; in experiment [3] (16.7 μM, 5 min reaction), 1643 Counts per minute and 1206 Counts per minute; in experiment [3] (20 μM, 5 min reaction) it was 1652 Counts per minute and 1708 Counts per minute; in experiment [3] (25 μM, 5 min reaction), 1121 Counts per minute and 652 Counts per minute. The “Counts per minute in cholesterol esters” value is 841 Counts per minute and 1141 Counts per minute in experiment [3] (33.3 μM, 5 min reaction); 632 Counts per minute and 573 Counts per minute in experiment [3] (50 μM, 5 min reaction); 304 Counts per minute and 297 Counts per minute in experiment [3] (100 μM, 5 min reaction).
As to `CN(C)CCCN1c2ccccc2Sc2ccc(Cl)cc21` [chlorpromazine], in experiment [4], the blood cholesterol entry is “without lowering of blood cholesterol” and the “development of atherosclerotic lesions” value is “reduced the development of such lesions”.
